pIC50: −log10 of the molar value.
Experiments:
Type in all cases: cell-based
human TLR7 = target: T1, human TLR7 (Homo sapiens, UniProt Q9NYK1); test: TLR7 inhibition reporter assay (HEK-Blue cells, SEAP reporter, gardiquimod stimulation); settings: HEK-Blue cells overexpressing human TLR7, SEAP reporter, gardiquimod 7.5 μM
T1 construct: host or cells: HEK-Blue cells (HEK293-derived reporter line)
T1 sequence (Q9NYK1 27-1049): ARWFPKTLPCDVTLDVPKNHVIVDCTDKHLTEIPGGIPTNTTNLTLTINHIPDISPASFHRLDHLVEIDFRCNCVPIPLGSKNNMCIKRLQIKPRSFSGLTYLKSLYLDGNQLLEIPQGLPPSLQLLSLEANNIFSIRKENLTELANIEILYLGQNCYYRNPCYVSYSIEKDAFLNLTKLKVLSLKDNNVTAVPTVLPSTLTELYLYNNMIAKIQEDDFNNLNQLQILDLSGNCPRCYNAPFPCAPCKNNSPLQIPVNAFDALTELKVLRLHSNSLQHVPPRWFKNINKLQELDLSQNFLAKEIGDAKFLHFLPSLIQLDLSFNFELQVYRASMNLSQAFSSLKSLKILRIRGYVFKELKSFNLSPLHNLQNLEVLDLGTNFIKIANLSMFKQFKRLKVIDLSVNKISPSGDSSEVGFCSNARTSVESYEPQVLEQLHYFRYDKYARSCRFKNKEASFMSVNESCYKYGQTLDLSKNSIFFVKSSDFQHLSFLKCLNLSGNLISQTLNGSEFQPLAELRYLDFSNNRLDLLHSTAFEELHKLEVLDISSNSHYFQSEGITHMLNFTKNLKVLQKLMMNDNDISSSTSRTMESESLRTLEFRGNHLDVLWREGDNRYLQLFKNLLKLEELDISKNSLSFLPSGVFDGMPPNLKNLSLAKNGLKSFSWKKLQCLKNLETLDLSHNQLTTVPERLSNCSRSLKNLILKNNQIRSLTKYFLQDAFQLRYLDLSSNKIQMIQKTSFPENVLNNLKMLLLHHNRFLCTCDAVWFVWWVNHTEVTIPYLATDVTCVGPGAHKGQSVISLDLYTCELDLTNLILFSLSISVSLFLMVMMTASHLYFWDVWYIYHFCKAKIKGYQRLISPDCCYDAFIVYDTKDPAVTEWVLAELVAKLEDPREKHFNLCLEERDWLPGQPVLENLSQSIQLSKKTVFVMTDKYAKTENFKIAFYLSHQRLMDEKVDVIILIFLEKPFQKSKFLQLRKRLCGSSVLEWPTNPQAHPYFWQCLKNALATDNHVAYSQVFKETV
Procedure, shortened: (§1)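 HEK-Blue cells overexpressing human TLR7, TLR8 or TLR9 (NF-κB/AP-1-driven SEAP) pre-treated 30 min at room temperature with compound (0.05 nM–50 μM), then stimulated with gardiquimod 7.5 μM (TLR7), R848 15.9 μM (TLR8) or ODN2006 5 nM (TLR9). SEAP read colorimetrically after 22 h at 37 °C; % inhibition calculated.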

human TLR9 = target: T2, human TLR9 (Homo sapiens, UniProt Q9NR96); test: TLR9 inhibition reporter assay (HEK-Blue cells, SEAP reporter, ODN2006 stimulation); settings: HEK-Blue cells overexpressing human TLR9, SEAP reporter, ODN2006 5 nM
T2 construct: host or cells: HEK-Blue cells (HEK293-derived reporter line)
T2 sequence (Q9NR96 26-1032): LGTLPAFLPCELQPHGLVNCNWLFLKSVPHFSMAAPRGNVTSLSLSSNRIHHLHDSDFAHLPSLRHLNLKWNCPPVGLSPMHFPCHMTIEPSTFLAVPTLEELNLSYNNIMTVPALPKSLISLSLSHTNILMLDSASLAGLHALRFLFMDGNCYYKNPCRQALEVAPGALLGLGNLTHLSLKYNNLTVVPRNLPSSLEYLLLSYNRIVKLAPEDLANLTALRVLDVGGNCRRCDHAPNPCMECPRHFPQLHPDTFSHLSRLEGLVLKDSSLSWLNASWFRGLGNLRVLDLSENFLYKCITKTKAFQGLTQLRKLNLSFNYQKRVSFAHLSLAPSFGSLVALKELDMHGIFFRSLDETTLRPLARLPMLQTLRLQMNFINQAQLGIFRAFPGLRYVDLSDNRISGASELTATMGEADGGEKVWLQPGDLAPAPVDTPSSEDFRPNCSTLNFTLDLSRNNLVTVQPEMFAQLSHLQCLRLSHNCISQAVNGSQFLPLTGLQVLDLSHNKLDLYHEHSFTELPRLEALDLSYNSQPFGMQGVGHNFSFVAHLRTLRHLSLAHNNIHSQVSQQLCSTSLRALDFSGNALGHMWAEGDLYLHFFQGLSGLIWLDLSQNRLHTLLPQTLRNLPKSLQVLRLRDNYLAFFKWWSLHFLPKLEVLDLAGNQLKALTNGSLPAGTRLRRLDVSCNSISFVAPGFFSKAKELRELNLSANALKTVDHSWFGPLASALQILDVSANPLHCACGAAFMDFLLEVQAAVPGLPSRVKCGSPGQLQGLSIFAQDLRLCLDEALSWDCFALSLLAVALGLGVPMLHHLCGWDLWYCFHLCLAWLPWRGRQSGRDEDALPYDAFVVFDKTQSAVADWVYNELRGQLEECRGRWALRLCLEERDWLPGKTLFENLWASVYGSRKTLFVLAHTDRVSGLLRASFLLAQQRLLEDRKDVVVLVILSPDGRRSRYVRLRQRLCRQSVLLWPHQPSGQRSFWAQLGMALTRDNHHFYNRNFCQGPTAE
Procedure, shortened: as §1

human TLR8 = target: T3, human TLR8 (Homo sapiens, UniProt Q9NR97); test: TLR8 inhibition reporter assay (HEK-Blue cells, SEAP reporter, R848 stimulation); settings: HEK-Blue cells overexpressing human TLR8, SEAP reporter, R848 15.9 μM
T3 construct: host or cells: HEK-Blue cells (HEK293-derived reporter line)
T3 sequence (Q9NR97 27-1041): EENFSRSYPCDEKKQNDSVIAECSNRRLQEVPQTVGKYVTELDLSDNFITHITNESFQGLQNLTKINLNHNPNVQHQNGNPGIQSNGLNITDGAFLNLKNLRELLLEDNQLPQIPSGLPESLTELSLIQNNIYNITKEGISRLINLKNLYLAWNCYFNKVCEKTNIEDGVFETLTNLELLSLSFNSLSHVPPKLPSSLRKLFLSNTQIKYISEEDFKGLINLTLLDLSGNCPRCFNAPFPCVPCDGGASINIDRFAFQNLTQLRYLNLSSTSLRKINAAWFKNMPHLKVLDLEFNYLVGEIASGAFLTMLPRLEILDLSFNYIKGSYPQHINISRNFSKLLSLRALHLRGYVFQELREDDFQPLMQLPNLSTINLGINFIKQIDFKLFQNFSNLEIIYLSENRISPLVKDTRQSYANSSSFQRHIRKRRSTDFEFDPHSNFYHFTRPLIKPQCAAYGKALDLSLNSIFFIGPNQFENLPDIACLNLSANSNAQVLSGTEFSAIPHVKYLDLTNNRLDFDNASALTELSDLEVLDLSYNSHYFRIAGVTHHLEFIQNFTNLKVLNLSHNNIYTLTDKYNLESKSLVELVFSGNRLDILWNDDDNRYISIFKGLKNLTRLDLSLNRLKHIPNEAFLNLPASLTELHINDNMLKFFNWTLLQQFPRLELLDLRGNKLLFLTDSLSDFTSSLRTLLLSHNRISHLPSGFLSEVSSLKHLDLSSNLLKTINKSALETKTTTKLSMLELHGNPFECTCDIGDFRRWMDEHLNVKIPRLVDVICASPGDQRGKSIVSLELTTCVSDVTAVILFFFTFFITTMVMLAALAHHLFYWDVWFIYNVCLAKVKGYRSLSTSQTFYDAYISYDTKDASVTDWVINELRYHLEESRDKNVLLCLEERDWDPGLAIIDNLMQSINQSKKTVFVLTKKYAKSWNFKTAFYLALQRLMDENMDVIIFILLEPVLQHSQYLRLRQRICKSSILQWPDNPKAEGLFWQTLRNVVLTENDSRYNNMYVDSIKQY
Procedure, shortened: as §1

CCOc1cc(-c2[nH]c3ccc(C4CCN(CC(=O)NC)CC4)cc3c2C(C)C)cc2nc(C)nn12 [Example 349, 2-(4-(2-(5-ethoxy-2-methyl-[1,2,4]triazolo[1,5-a]pyridin-7-yl)-3-isopropyl-1H-indol-5-yl)piperidin-1-yl)-N-methylacetamide] was tested, and the pIC50 (human TLR7) was > 7.00, the pIC50 (human TLR9) was 4.30 to 6.00 and the pIC50 (human TLR8) was > 7.00.

In the case of CC(C)c1c(-c2c[nH]c3ncccc23)[nH]c2ccc(C3CCNCC3)cc12 [Example 17, 3-(3-isopropyl-5-(piperidin-4-yl)-1H-indol-2-yl)-1H-pyrrolo[2,3-b]pyridine], the pIC50 (human TLR7) was > 7.00, the pIC50 (human TLR9) was 6.00 to 7.00 and the pIC50 (human TLR8) was > 7.00.

For CC(C)c1c(-c2cnc3ccnn3c2)[nH]c2ccc(C3CCNCC3)cc12 [Example 181, 6-(3-isopropyl-5-(piperidin-4-yl)-1H-indol-2-yl)pyrazolo[1,5-a]pyrimidine], the pIC50 (human TLR7) was 4.30 to 6.00, the pIC50 (human TLR9) was 4.30 to 6.00 and the pIC50 (human TLR8) was < 5.51.

For CCN1CCC(N2CCC(c3ccc4[nH]c(-c5ccnc6[nH]ccc56)c(C)c4c3)CC2)CC1 [Example 811, 4-(5-(1′-ethyl-[1,4′-bipiperidin]-4-yl)-3-methyl-1H-indol-2-yl)-1H-pyrrolo[2,3-b]pyridine], the pIC50 (human TLR7) was > 7.00, the pIC50 (human TLR9) was > 7.00 and the pIC50 (human TLR8) was > 7.00.

For CNCCN1CCC(c2ccc3[nH]c(-c4ccnc5[nH]ncc45)c(C(C)C)c3c2)C(F)C1 (stereo not drawn) [Example 675, 2-(3-fluoro-4-(3-isopropyl-2-(1H-pyrazolo[3,4-b]pyridin-4-yl)-1H-indol-5-yl)piperidin-1-yl)-N-methylethan-1-amine], the pIC50 (human TLR7) was > 7.00, the pIC50 (human TLR9) was 6.00 to 7.00 and the pIC50 (human TLR8) was > 7.00.

Cc1nc(CN2CCC(c3ccc4[nH]c(-c5ccnc6[nH]ncc56)c(C(C)C)c4c3)CC2)c2ccccn12 [Example 868, 4-(3-isopropyl-5-(1-((3-methylimidazo[1,5-a]pyridin-1-yl)methyl)piperidin-4-yl)-1H-indol-2-yl)-1H-pyrazolo[3,4-b]pyridine] was tested, and the pIC50 (human TLR7) was > 7.00, the pIC50 (human TLR9) was 6.00 to 7.00 and the pIC50 (human TLR8) was > 7.00.

With CC(C)c1c(-c2ccnc3[nH]ncc23)[nH]c2ccc(C3CCN(C(=O)CNCC(C)(C)C)CC3)cc12 [Example 589, 1-(4-(3-isopropyl-2-(1H-pyrazolo[3,4-b]pyridin-4-yl)-1H-indol-5-yl)piperidin-1-yl)-2-(neopentylamino)ethan-1-one] the pIC50 (human TLR7) was > 7.00, the pIC50 (human TLR9) was 4.30 to 6.00 and the pIC50 (human TLR8) was > 7.00.

With CC(C)c1c(-c2ccn3nncc3c2)[nH]c2ccc(C3CCN(C4COC4)CC3)cc12 [Example 735, 5-(3-isopropyl-5-(1-(oxetan-3-yl)piperidin-4-yl)-1H-indol-2-yl)-[1,2,3]triazolo[1,5-a]pyridine] the pIC50 (human TLR7) was > 7.00, the pIC50 (human TLR9) was 4.30 to 6.00 and the pIC50 (human TLR8) was 6.00 to 7.00.

With CNCCN1CCC(c2ccc3[nH]c(-c4ccnc5[nH]ncc45)c(C(C)C)c3c2)C(F)C1 (stereo not drawn) [Example 677, 2-(3-fluoro-4-(3-isopropyl-2-(1H-pyrazolo[3,4-b]pyridin-4-yl)-1H-indol-5-yl)piperidin-1-yl)-N-methylethan-1-amine] the pIC50 (human TLR7) was > 7.00, the pIC50 (human TLR9) was 6.00 to 7.00 and the pIC50 (human TLR8) was > 7.00.

With Cc1cc(-c2[nH]c3ccc(C4CCNCC4)cc3c2C(C)C)cc2nccn12 [Example 161, 7-(3-isopropyl-5-(piperidin-4-yl)-1H-indol-2-yl)-5-methylimidazo[1,2-a]pyridine] the pIC50 (human TLR7) was 6.00 to 7.00, the pIC50 (human TLR9) was 6.00 to 7.00 and the pIC50 (human TLR8) was > 7.00.

CC(C)c1c(-c2ccnc3[nH]ncc23)[nH]c2ccc(C3CCN(CCCN4CCCCC4)CC3)cc12 [Example 848, 4-(3-isopropyl-5-(1-(3-(piperidin-1-yl)propyl)piperidin-4-yl)-1H-indol-2-yl)-1H-pyrazolo[3,4-b]pyridine] was tested, and the pIC50 (human TLR7) was 6.00 to 7.00, the pIC50 (human TLR9) was 6.00 to 7.00 and the pIC50 (human TLR8) was 6.00 to 7.00.

CC(C)c1c(-c2cnc3ccnn3c2)[nH]c2ccc(C3CCN(Cc4cnn(C)c4)CC3)cc12 [Example 932, 6-(3-isopropyl-5-(1-((1-methyl-1H-pyrazol-4-yl)methyl)piperidin-4-yl)-1H-indol-2-yl)pyrazolo[1,5-a]pyrimidine] was tested, and the pIC50 (human TLR7) was 6.00 to 7.00, the pIC50 (human TLR9) was 6.00 to 7.00 and the pIC50 (human TLR8) was 4.30 to 6.00.

In the case of Cc1c(-c2[nH]c3ccc(C4CCN(CC(=O)N(C)C)CC4)cc3c2C(C)C)ccc2c1cnn2C [Example 382, 2-(4-(2-(1,4-dimethyl-1H-indazol-5-yl)-3-isopropyl-1H-indol-5-yl)piperidin-1-yl)-N,N-dimethylacetamide], the pIC50 (human TLR7) was > 7.00, the pIC50 (human TLR9) was 4.30 to 6.00 and the pIC50 (human TLR8) was > 7.00.

With Cc1cc(-c2[nH]c3ccc(C4CCN(CCCC(F)(F)F)CC4)cc3c2C(C)C)cn2nncc12 [Example 960, 6-(3-isopropyl-5-(1-(4,4,4-trifluorobutyl)piperidin-4-yl)-1H-indol-2-yl)-4-methyl-[1,2,3]triazolo[1,5-a]pyridine] the pIC50 (human TLR7) was 6.00 to 7.00, the pIC50 (human TLR9) was 4.30 to 6.00 and the pIC50 (human TLR8) was 6.00 to 7.00.

With CC(C)N1CCC(c2ccc3[nH]c(-c4ccc5nccn5c4)c(CC(F)F)c3c2)CC1 [Example 948, 6-(3-(2,2-difluoroethyl)-5-(1-isopropylpiperidin-4-yl)-1H-indol-2-yl)imidazo[1,2-a]pyridine] the pIC50 (human TLR7) was > 7.00, the pIC50 (human TLR9) was 6.00 to 7.00 and the pIC50 (human TLR8) was 6.00 to 7.00.

From patent US11739098B2 (BRISTOL-MYERS SQUIBB COMPANY, priority 2017, dated 2023)
